Tests used:
mutp53 = assay: Summary score of peptide functional screens; settings: overall score over conformation, DNA binding, viability and PCR screens
ES2 ovarian cancer cells = assay: Crystal violet viability assay, ES2; format: cell-based, human; settings: score 0-6 compared to positive control, 48 h
Description: (§1) Cell extracts were added to ELISA plates coated with the indicated antibodies to allow mutp53 to react with the peptides and antibodies. αp53-HRP Ab was used for assessment of p53 levels. Numbers represent ratio of absorbance between the PAb1620 and PAb240 samples. All reads were normalized to the control […] reading of each extract. MCF7 (WTp53) and H1299-mutp53^A135V (tsp53) cells were used as positive controls for the WTp53 conformation (1620/240 ratio equals or exceeds 5:1). […] 96 well plates were coated with anti-p53 antibody, cell extracts containing p53 were reacted with oligonucleotides that contain a p53RE consensus binding site, labeled with biotin, in the presence or absence (NT) of test peptides. Streptavidin-HRP is used to quantify the amount of oligos in the well. TMB assay was performed to determine bound mutp53 levels (450nm). MCF7 and the H1299-mutp53^A135V(TS) cells serve as positive controls for WTp53. C.and D. - Bar graphs illustrating the effect of various selected peptides on mut-p53 dependent expression on cell viability. […] D, ES2 cells expressing endogenous mutp53 (blue bars) and ES2 cells knocked out for p53 by CRISPR construct (light blue bars). Cell lines were treated with selected peptides, Cis-platinum was used as positive control for cell death. 48 hours after treatment, cells were washed with PBS, and the remaining attached cells were stained with Crystal violet and washed 4 times with PBS. Stained cells were dissolved in 10% acetic acid and plates were taken for optical density measurement at […]. TEXT PRINTED IN THE PICTURE: (A) pCAP1: 0.87 | (A) pCAP2: 0.53 | (A) pCAP3: 0.59 | (A) pCAP4: 0.59 | (A) pCAP5: 0.60 | (A) pCAP6: 0.75 | (A) pCAP23: 1.06 | (A) pCAP24: 1.44 | (A) pCAP36: 1.25 | (A) pCAP47: 1.54 | (A) pCAP54: 1.54 | (A) pCAP60: 2.73 | (A) pCAP68: 2.22 | (A) pCAP83: 1.56 | (A) pCAP97: 2.45 DOUBTS OF THE COPYIST ABOUT THIS PICTURE: Panel A: the numbers over the bars are printed very small, rotated and blurred, so 3, 5, 6, 8 and 9 cannot be told apart with certainty. All values are best readings: pCAP1 0.87, pCAP2 0.53, pCAP3 0.59, pCAP4 0.59, pCAP5 0.60, pCAP6 0.75, pCAP23 1.06, pCAP24 1.44, pCAP36 1.25, pCAP47 1.54, pCAP54 1.54, pCAP60 2.73, pCAP68 2.22, pCAP83 1.56, pCAP97 2.45 / Panel A: the picture prints no measure with the numbers over the bars, so they are given as bare numbers / Panel A: numbers are also printed over the controls, which are not substances and are left out of lines. Best readings: NT 0.60, 60° 30'' 0.48, 60° 1' 0.37, 60° 3' 0.13, 60° 10' 0.05, MCF7 3.32, H1299TS 3.25
(§2) We also performed a similar analysis on ES2 ovarian cancer cells, which express endogenous mp53^S241F, compared to ES2 cells in which p53 was stably knocked out using CRISPR/Cas9 (ES2 p53KO Figure S1F), to control for specificity for mutp53 (Figure 2D). In ES2 cells, too, some of the peptides caused a significant reduction in cell numbers, more prominent in the mutp53 expressing cells than in their p53KO counterparts. […] Overall, we performed this analysis on several different mutp53-expressing human cancer cell lines, and the results are summarized in Table S3. Based on this comprehensive picture, we reduced the number of most promising candidate lead peptides to 30. These peptides were then synthesized with an 8 arginine C-terminal tail for enhanced delivery across cell membranes (pCAPs 130-160); for clarity, peptides are referred to by their original number, with an R for poly arginine (see Table S3).
(§3) Cells were cultured in 96 wells plates with 2500-4000 cells/well. Serial dilutions of different peptides were added and the plates incubated for additional 48 h at 37°C. Then medium was removed and cell viability was determined by staining the cells with crystal violet (0.05%) in methanol/PBS (1:5, v/v), for 10 min, followed by 3 washes with PBS. 10% acetic acid was added to each well for 10 min. OD was determined at 595 nm.

WI38 = assay: Crystal violet viability assay, WI38; format: cell-based; settings: score 0-6 compared to positive control, 48 h
Description: as §3

mutp53^R175H [1] = assay: ELISA of mutp53 DNA binding (p53RE oligonucleotide), H1299-p53^R175H cell extract; format: biochemical, human; settings: score 0-6 compared to positive control; mutp53 DNA binding
Description: as §1
(§4) Next, we assessed the ability of our selected peptides to restore sequence-specific DNA binding to mutp53. To that end we employed an ELISA kit (R&D) in which cell extracts containing p53 are reacted with a biotinylated p53RE oligonucleotide and then incubated in wells coated with anti-p53 antibody, which is expected to trap the p53 protein and its associated p53RE DNA. The amount of p53RE retained in each well via p53 binding is quantified by incubation with streptavidin-HRP. […] Again, extracts of MCF7 and H1299-tsp53^A135V cells served as positive controls for WTp53 DNA binding activity. […] Importantly, there was substantial overlap between the peptides that stabilized the WT conformation (Figure 2A) and those that increased specific DNA binding (Figure 2B), further reinforcing the conclusion that those peptides stabilize mutp53 in a functional state. This was not seen with the randomly selected peptides 1-6 (black bars).
For these experiments, a commercial p53/DNA binding kit of “R&D” (Cat-DYC1355-5 Lot-1273366FA) was used, in accordance with manufacturer guide lines. Briefly, 96 well plates we coated with anti-p53 antibody overnight. Cell extracts containing p53 are reacted with an oligonucleotide that contains a p53 consensus binding site (provided in the kit), labeled with Biotin, in the presence or absence (NT) of test peptides. […]

HOP62 = assay: Crystal violet viability assay, HOP62; format: cell-based, human; settings: score 0-6 compared to positive control, 48 h
Text: as §2, §3

[2] = test system: H1299 cells expressing mutp53^R175H; assay: Crystal violet viability assay, H1299; format: cell-based; settings: score 0-6 compared to positive control, 48 h
Description: Cell extracts were added to ELISA plates coated with the indicated antibodies to allow mutp53 to react with the peptides and antibodies. αp53-HRP Ab was used for assessment of p53 levels. Numbers represent ratio of absorbance between the PAb1620 and PAb240 samples. All reads were normalized to the control PAb241 reading of each extract. MCF7 (WTp53) and H1299-mutp53^A135V (tsp53) cells were used as positive controls for the WTp53 conformation (1620/240 ratio equals or exceeds 5:1). […] 96 well plates were coated with anti-p53 antibody, cell extracts containing p53 were reacted with oligonucleotides that contain a p53RE consensus binding site, labeled with biotin, in the presence or absence (NT) of test peptides. Streptavidin-HRP is used to quantify the amount of oligos in the well. TMB assay was performed to determine bound mutp53 levels (450nm). MCF7 and the H1299-mutp53^A135V(TS) cells serve as positive controls for WTp53. C.and D. - Bar graphs illustrating the effect of various selected peptides on mut-p53 dependent expression on cell viability. […] D, ES2 cells expressing endogenous mutp53 (blue bars) and ES2 cells knocked out for p53 by CRISPR construct (light blue bars). Cell lines were treated with selected peptides, Cis-platinum was used as positive control for cell death. 48 hours after treatment, cells were washed with PBS, and the remaining attached cells were stained with Crystal violet and washed 4 times with PBS. Stained cells were dissolved in 10% acetic acid and plates were taken for optical density measurement at 595nM.
This simple assay measures the total number of cells, thus reflecting the combination of both cell death and growth arrest effects. […] After 48 hours of treatment cells were stained with crystal violet and OD at 595nm was determined.
Values on the Y-axis reflect the number of cells in the treated wells, normalized to the non-treated samples (NT; red bars).

EP156 = assay: Crystal violet viability assay, EP156; format: cell-based; settings: score 0-6 compared to positive control, 48 h
Text: as §2, §3

[3] = test system: mutp53 in SK3 cell extract; assay: ELISA of mutp53 DNA binding (p53RE oligonucleotide), SK3; format: biochemical, human; settings: score 0-6 compared to positive control
Description: as §4
For these experiments, a commercial p53/DNA binding kit of “R&D” (Cat-DYC1355-5 Lot-1273366FA) was used, in accordance with manufacturer guide lines. Briefly, 96 well plates we coated with anti-p53 antibody overnight. Cell extracts containing p53 are reacted with an oligonucleotide that contains a p53 consensus binding site (provided in the kit), labeled with Biotin, in the presence or absence (NT) of test peptides. WT p53 is expected to bind this DNA binding site as well as to the antibody coating the test wells of the plate. Excess p53 and oligos were washed away and streptavidin-HRP was used to quantify the amount of oligos in the well, which is proportional to the DNA bound by p53. TMB assay was performed to determine HRP (ES001-1L-K) levels (450nm).

mutp53^R175H [4] = assay: ELISA of mutp53 conformation (PAb1620/PAb240), H1299-p53^R175H cell extract; format: biochemical, human; settings: score 0-6 compared to positive control; mutp53 conformation
Text: (§5) A total of close to 350 peptides, deduced from the phage sequences, were synthesized and subjected to several alternative complementary methods of semi high-throughput functional screening; we refer to these peptides as pCAPs (p53 conformation activating peptides). First, we used cell-free ELISA assays to evaluate the effect of individual peptides on mutp53 conformation and DNA binding in vitro. For conformation analysis (Figure 2A), microtiter plates were coated with PAb240, PAb1620 or PAb421 as control, then the effect of each peptide on reactivity of mutp53 with these antibodies was examined; WTp53 served as a positive control for PAb1620 reactivity.
as §1
Extracts were prepared at a concentration of 750ng/μl and then reacted for 2 hours with different peptides. Plates coated with the different antibodies were then washed and blocked, and extracts pre-incubated either with or without peptides were added for two additional hours. After removal of extracts, plates were washed and incubated with HRP-conjugated anti-p53 antibody. Finally, HRP activity was quantified by optical density at 450nm. MCF7 cells (expressing WTp53) and H1299-tsp53^A135V cells, stably expressing a temperature sensitive p53 mutant that has mutant conformation at 37°C but WT conformation at 32°C [31], were used as positive controls for the WTp53 conformation (1620/240 ratio 5:1). […]

[5] = test system: mutp53 in BT549 cell extract; assay: ELISA of mutp53 conformation, BT549; format: biochemical, human; settings: score 0-6 compared to positive control
Text: as §5
(§6) 96-well plates were coated using 3 different anti p53 monoclonal antibodies, PAb421, PAb240 and PAb1620. Wells were incubated overnight (ON) with 100μl Ab (5μg/ml) in room temp (RT). The liquid was discarded, and the wells were washed 3 times with PBS, 200 μl. Next, blocking with 5% BSA in PBS for 2 hours (RT) was performed, followed by 3 washes in PBS. Samples of mutant and WT p53 proteins (100 μl, 10 μg/ml), together with control peptides or with test peptides 1-326 (5μg /ml), were incubated for 1.5 hours, and then added to the wells for1 hour at RT. 4 washes with PBST were performed. Next, HRP conjugated αp53 antibody (10μg/ml HAF1355 (R&D)) were added to the wells and incubated at RT for 1 hour. Plates were washed 3 times in PBST and TMB substrate solution (50μl each well, Thermo, (Cat. No. ES001-1L-K)) was added and incubated at 37°C for 20 min. The reaction was stopped with 2M Sulfuric acid (50μl). The absorbance was measured at 450 nm with a spectrophotometer. Protein concentration was determined by dividing the absorb an each sample to by the absorbance of PAb421 samples.

SK3 = assay: Crystal violet viability assay, SK3; format: cell-based, human; settings: score 0-6 compared to positive control, 48 h
Text: as §2, §3

[6] = test system: mutp53 in SK3 cell extract; assay: ELISA of mutp53 conformation, SK3; format: biochemical, human; settings: score 0-6 compared to positive control
Text: as §5, §6

Substance	SCORE (mutp53)	DNA H1299 (mutp53^R175H [1])	Viability HOP62 (HOP62)	Viability H1299 [2]	Conform BT549 [5]	also measured
EHDFEVRGDVVNGRNHQPK [pCAP-4, randomly selected peptide used as inert comparison]	2	–	–	–	–	Viability ES2 (ES2 ovarian cancer cells): 2
SPLQTPAAPGAAAGPALSPV [pCAP-7, synthesized peptide of the functional screen]	3	1	–	–	–	Viability WI38 (WI38): 2
LGIDEDEETETAPE [pCAP-6, randomly selected peptide used as inert comparison]	4	–	2	–	–	–
LPNPPERHH [pCAP-16]	22	3	3	3	–	Viability EP156 (EP156): 4; DNA SK3 [3]: 3; Conform H1299 (mutp53^R175H [4]): 2
myr-HSSHHHPTVQHRR [pCAP-257, myristoylated peptide, similarity to SIN3A]	16	3	3	–	3	Viability SK3 (SK3): 3; Viability EP156 (EP156): 4
DEDAKFRIRILMRR [pCAP-202, peptide with similarity to APAF1]	13	–	2	3	3	Conform SK3 [6]: 2; Viability SK3 (SK3): 3
FPGHTIH [pCAP-100]	19	3	–	3	1	Conform SK3 [6]: 3; DNA SK3 [3]: 3
VWVHDSCHANLQNYRNYLP [pCAP-2, randomly selected peptide used as inert comparison]	2	–	–	–	–	–
LEVIYMI [pCAP-5, randomly selected peptide used as inert comparison]	2	–	–	–	–	–
FWTQSIKERKMLNEHDFER [pCAP-3, randomly selected peptide used as inert comparison]	4	–	2	1	–	–

— PMC4914250, “Cancer therapeutic approach based on conformational stabilization of mutant p53 protein by small peptides” (Oncotarget, 2016)
